ChEMBL document CHEMBL5136977, “Discovery of 1-(5-(1H-benzo[d]imidazole-2-yl)-2,4-dimethyl-1H-pyrrol-3-yl)ethan-1-one derivatives as novel and potent bromodomain and extra-terminal (BET) inhibitors with anticancer efficacy” (Eur J Med Chem, 2022)

Columns and labels:
[1] = Oral bioavailability in Sprague-Dawley rat at 10 mg/kg by LC-MS/MS analysis; format: ADME, organism-based; details: in vivo
[2] = Half life in Sprague-Dawley rat at 10 mg/kg, po by LC-MS/MS analysis; format: ADME, organism-based; details: in vivo
[3] = Tmax in Sprague-Dawley rat at 10 mg/kg, po by LC-MS/MS analysis; format: ADME, organism-based; details: in vivo
MV4-11 [4] = assay: Antitumor activity against human MV4-11 cells xenografted BALB/c nude mouse model assessed as tumor growth inhibition at 20 mg/kg, po QD administered for 28 consecutive days; format: functional; details: MV4-11, 672 h, time 28 day, read-out: TGI
[5] = Induction of cell apoptosis in human MV4-11 cells assessed as early apoptotic cells at 1000 nM incubated for 48 hrs by Annexin V-FITC/Propidium iodide staining based flow cytometry analysis (reference value: 1.42%); format: functional
MV4-11 [6] = assay: Induction of cell cycle arrest in human MV4-11 cells assessed as accumulation of cells at G2/M phase at 100 nM incubated for 48 hrs by propidium iodide staining based flow cytometric analysis (reference value: 8%); format: functional
[7] = Induction of cell apoptosis in human MV4-11 cells assessed as late apoptotic cells at 200 nM incubated for 48 hrs by Annexin V-FITC/Propidium iodide staining based flow cytometry analysis (reference value: 1.99%); format: functional
[8] = Induction of cell apoptosis in human MV4-11 cells assessed as late apoptotic cells at 1000 nM incubated for 48 hrs by Annexin V-FITC/Propidium iodide staining based flow cytometry analysis (reference value: 1.99%); format: functional
HL-60(TB) = assay: Antiproliferative activity against human HL-60(TB) cells assessed as cell growth inhibition measured after 72 hrs by CellTiter-Glo assay; format: functional
MV4-11 [9] = assay: Antiproliferative activity against human MV4-11 cells assessed as cell growth inhibition incubated for 72 hrs by CellTiter-Glo assay; format: functional, cell-based; details: MV4-11, 72 h
[10] = Metabolic stability in rat liver assessed as intrinsic clearance incubated for 1 hr by LC-MS/MS analysis; format: ADME, tissue-based; details: read-out: CLH
MDA-MB-468 = assay: Antiproliferative activity against human MDA-MB-468 cells assessed as cell growth inhibition measured after 72 hrs by CellTiter-Glo assay; format: functional
[11] = Metabolic stability in monkey liver assessed as intrinsic clearance incubated for 1 hr by LC-MS/MS analysis; format: ADME, tissue-based, Macaca mulatta; details: rhesus monkey, read-out: CLH
[12] = Metabolic stability in rat liver microsomes assessed as intrinsic clearance incubated for 1 hr by LC-MS/MS analysis; format: ADME, Microsome; details: read-out: CLH
[13] = Metabolic stability in monkey liver microsomes assessed as intrinsic clearance incubated for 1 hr by LC-MS/MS analysis; format: ADME, Macaca mulatta, Microsome; details: rhesus monkey, read-out: CLH
[14] = Induction of cell apoptosis in human MV4-11 cells assessed as early apoptotic cells at 200 nM incubated for 48 hrs by Annexin V-FITC/Propidium iodide staining based flow cytometry analysis (reference value: 1.42%); format: functional
MV4-11 [15] = assay: Induction of cell cycle arrest in human MV4-11 cells assessed as downregulation of c-myc expression incubated for 24 hrs by Western blotting analysis; format: functional, cell-based; details: dose 62.5-250 nM, DDE = dose-dependent effect
[16] = AUC (0 to infinity) in Sprague-Dawley rat at 1 mg/kg, iv by LC-MS/MS analysis; format: ADME, organism-based; design: time infinity, dose 1 mg/kg, route iv; details: in vivo
SNB-75 = assay: Antiproliferative activity against human SNB-75 cells assessed as cell growth inhibition measured after 72 hrs by CellTiter-Glo assay; format: functional
[17] = Metabolic stability in human liver microsomes assessed as elimination half life incubated for 1 hr by LC-MS/MS analysis; format: ADME, Microsome; details: read-out: beta t1/2
[18] = Induction of cell apoptosis in human MV4-11 cells assessed as early apoptotic cells at 500 nM incubated for 48 hrs by Annexin V-FITC/Propidium iodide staining based flow cytometry analysis (reference value: 1.42%); format: functional
[19] = Induction of cell apoptosis in human MV4-11 cells assessed as […] cells at 200 nM incubated for 48 hrs by Annexin V-FITC/Propidium iodide staining based flow cytometry analysis (reference value: 96.6%); format: functional
MV4-11 [20] = assay: Antitumor activity against human MV4-11 cells xenografted BALB/c nude mouse model assessed as tumor growth inhibition at 40 mg/kg, po QD administered for 28 consecutive days; format: functional; details: MV4-11, 672 h, time 28 day, read-out: TGI
[21] = Metabolic stability in human liver assessed as intrinsic clearance incubated for 1 hr by LC-MS/MS analysis; format: ADME, tissue-based; details: read-out: CLH
[22] = AUC (0 to infinity) in Sprague-Dawley rat at 10 mg/kg, po by LC-MS/MS analysis; format: ADME, organism-based; design: time infinity, dose 10 mg/kg, route po; details: in vivo
[23] = Metabolic stability in dog liver microsomes assessed as elimination half life incubated for 1 hr by LC-MS/MS analysis; format: ADME, Canis lupus familiaris, Microsome; details: read-out: beta t1/2
CAKI-1 = assay: Antiproliferative activity against human CAKI-1 cells assessed as cell growth inhibition measured after 72 hrs by CellTiter-Glo assay; format: functional
MV4-11 [24] = assay: Induction of cell cycle arrest in human MV4-11 cells assessed as accumulation of cells at G0/G1 phase at 100 nM incubated for 48 hrs by propidium iodide staining based flow cytometric analysis (reference value: 65.71%); format: functional
UACC-62 = assay: Antiproliferative activity against human UACC-62 cells assessed as cell growth inhibition measured after 72 hrs by CellTiter-Glo assay; format: functional
[25] = Induction of cell apoptosis in human MV4-11 cells assessed as late apoptotic cells at 500 nM incubated for 48 hrs by Annexin V-FITC/Propidium iodide staining based flow cytometry analysis (reference value: 1.99%); format: functional
[26] = Metabolic stability in human liver microsomes assessed as intrinsic clearance incubated for 1 hr by LC-MS/MS analysis; format: ADME, Microsome; details: read-out: CLH
MV4-11 [27] = assay: Induction of cell cycle arrest in human MV4-11 cells assessed as accumulation of cells at G0/G1 phase at 200 nM incubated for 48 hrs by propidium iodide staining based flow cytometric analysis (reference value: 65.71%); format: functional
MV4-11 [28] = assay: Induction of cell cycle arrest in human MV4-11 cells assessed as accumulation of cells at S phase at 200 nM incubated for 48 hrs by propidium iodide staining based flow cytometric analysis (reference value: 26.29%); format: functional
[29] = Volume of distribution in Sprague-Dawley rat at 1 mg/kg, iv by LC-MS/MS analysis; format: ADME, organism-based; details: in vivo
[30] = C0 in Sprague-Dawley rat at 1 mg/kg, iv by LC-MS/MS analysis; format: ADME, organism-based; details: in vivo
HCT-15 = assay: Antiproliferative activity against human HCT-15 cells assessed as cell growth inhibition measured after 72 hrs by CellTiter-Glo assay; format: functional
NCI-H522 = assay: Antiproliferative activity against human NCI-H522 cells assessed as cell growth inhibition measured after 72 hrs by CellTiter-Glo assay; format: functional
MV4-11 [31] = assay: Induction of cell cycle arrest in human MV4-11 cells assessed as accumulation of cells at S phase at 100 nM incubated for 48 hrs by propidium iodide staining based flow cytometric analysis (reference value: 26.29%); format: functional
[32] = Toxicity in BALB/c nude mouse xenografted with human MV4-11 cells assessed as effect on body weight at 20 to 80 mg/kg, po QD administered for 28 consecutive days; format: organism-based; details: in vivo, 672 h, dose 20-80 mg/kg, time 28 day

What does the source list for CC(=O)c1c(C)[nH]c(-c2nc3cc(N4CCN(C)CC4)ccc3[nH]2)c1-c1ccccc1?
bioavailability [1]: 111%; half-life [2]: 242 min; Tmax [3]: 3.33 h; inhibition in vivo at 20 mg/kg (MV4-11 [4]): 48.7%; Activity [5]: 39.3%; Activity (MV4-11 [6]): 6.33%; Activity [7]: 4.78%; Activity [8]: 12.2%; GI50 (HL-60(TB)): 261 nM; IC50 (MV4-11 [9]): 15 nM; CLint scaled [10]: 37.6 mL/min/kg; GI50 (MDA-MB-468): 361 nM; CLint scaled [11]: 23.8 mL/min/kg; microsomal CLint [12]: 20.9 µL/min/mg; microsomal CLint [13]: 16.5 µL/min/mg; Activity [14]: 5.31%; Activity (MV4-11 [15]): Dde; AUC(0-inf) [16]: 725 ng·h/mL; GI50 (SNB-75): 41.6 nM; half-life [17]: 199 min; Activity [18]: 16.9%; Activity [19]: 89.7%; inhibition in vivo at 40 mg/kg (MV4-11 [20]): 103%; CLint scaled [21]: 6.64 mL/min/kg; AUC(0-inf) [22]: 8050 ng·h/mL; half-life [23]: 15 min; GI50 (CAKI-1): 211 nM; Activity (MV4-11 [24]): 75.41%; GI50 (UACC-62): 274 nM; Activity [25]: 76.4%; microsomal CLint [26]: 7.03 µL/min/mg; Activity (MV4-11 [27]): 87.4%; Activity (MV4-11 [28]): 9.68%; Vd [29]: 3.3 L/kg; C0 [30]: 548 ng/mL; GI50 (HCT-15): 261 nM; GI50 (NCI-H522): 258 nM; Activity (MV4-11 [31]): 18.26%; Activity [32]: Non-Toxic
